EC50 and Emax data for 25 molecules are collected here from patent publication US12637414B2, “Arylamides and methods of use thereof” (Genzyme Corporation, priority 2019, dated 2026).

This experiment deals with T1, human Cystic Fibrosis Transmembrane Conductance Regulator (CFTR) harboring the ΔF508 mutation (Homo sapiens, UniProt P13569, DEL508-508).
T1 construct: expressed in transfected cells; host or cells: H441 carcinoma line (G418 selection)
Nature of the experiment: H441 cell Emax and EC50: HRP-tagged ΔF508-CFTR cell surface luminescence assay. The format is cell-based. As to conditions: H441 cells expressing ΔF508-CFTR-HRP, 27° C., two nights; for EC50: 15-point dose-response, top 24.5 μM; for Emax: NCI-H441, % of maximum VX809 signal. An outline of the steps: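 Cells express ΔF508-CFTR carrying an HRP tag in extracellular loop 4 (CMV promoter); ~10K cells/well treated with a 15-point series from 24.5 µM and incubated two nights at 27° C. Surface CFTR read by luminescence from HRP substrate. EC50 and Emax given relative to maximal VX809 (260 µM stock) signal.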

T1 sequence (P13569 with tags, fused parts or gaps DEL508-508): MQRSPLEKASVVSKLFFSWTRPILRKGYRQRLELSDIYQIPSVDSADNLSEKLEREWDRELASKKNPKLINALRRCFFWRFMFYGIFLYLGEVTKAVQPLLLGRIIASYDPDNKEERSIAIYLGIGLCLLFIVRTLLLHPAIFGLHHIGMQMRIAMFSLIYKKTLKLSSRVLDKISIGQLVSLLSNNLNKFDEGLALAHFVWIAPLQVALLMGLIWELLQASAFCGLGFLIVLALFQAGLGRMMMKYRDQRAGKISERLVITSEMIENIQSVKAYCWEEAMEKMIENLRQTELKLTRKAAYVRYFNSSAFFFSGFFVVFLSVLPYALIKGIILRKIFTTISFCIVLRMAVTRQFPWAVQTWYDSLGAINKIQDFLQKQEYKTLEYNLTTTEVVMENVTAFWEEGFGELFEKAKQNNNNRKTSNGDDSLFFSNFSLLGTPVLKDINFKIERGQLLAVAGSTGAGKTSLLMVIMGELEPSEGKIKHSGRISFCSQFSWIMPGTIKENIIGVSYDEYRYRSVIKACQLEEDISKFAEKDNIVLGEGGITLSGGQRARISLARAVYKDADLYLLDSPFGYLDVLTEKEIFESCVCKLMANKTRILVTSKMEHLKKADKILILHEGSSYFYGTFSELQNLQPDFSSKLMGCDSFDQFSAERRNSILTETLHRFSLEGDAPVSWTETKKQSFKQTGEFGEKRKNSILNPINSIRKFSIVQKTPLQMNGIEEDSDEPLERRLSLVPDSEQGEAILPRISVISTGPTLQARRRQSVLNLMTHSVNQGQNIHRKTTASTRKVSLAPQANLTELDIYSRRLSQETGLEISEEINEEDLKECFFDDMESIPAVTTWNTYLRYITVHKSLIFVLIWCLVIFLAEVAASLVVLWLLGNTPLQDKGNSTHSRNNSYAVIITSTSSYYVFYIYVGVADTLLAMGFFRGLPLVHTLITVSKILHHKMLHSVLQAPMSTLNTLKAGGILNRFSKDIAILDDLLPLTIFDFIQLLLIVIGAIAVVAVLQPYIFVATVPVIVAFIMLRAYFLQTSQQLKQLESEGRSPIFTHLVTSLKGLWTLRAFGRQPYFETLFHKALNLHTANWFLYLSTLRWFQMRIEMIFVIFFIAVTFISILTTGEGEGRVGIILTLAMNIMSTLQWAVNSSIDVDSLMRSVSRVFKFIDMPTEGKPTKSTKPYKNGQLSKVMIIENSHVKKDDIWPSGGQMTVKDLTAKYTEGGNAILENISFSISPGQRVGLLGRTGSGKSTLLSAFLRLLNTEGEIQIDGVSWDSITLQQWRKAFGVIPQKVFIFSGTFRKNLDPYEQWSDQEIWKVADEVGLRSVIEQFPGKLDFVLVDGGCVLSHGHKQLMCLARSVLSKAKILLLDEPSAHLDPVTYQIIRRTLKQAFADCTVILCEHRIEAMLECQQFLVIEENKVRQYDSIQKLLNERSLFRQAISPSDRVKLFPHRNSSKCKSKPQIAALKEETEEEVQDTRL

What is called EC50 is the midpoint of the concentration-response curve. The term Emax denotes the maximal effect, on the per cent scale that the assay sets. As for `O=C(N[C@H](C(=O)O)C12CC3CC(CC(C3)C1)C2)c1ccc2occc2c1OCc1nc2ccccc2s1` [compound 122, (2S)-2-(1-adamantyl)-2-[[4-(1,3-benzothiazol-2-ylmethoxy)benzofuran-5-carbonyl]amino]acetic acid], the midpoint of the response, the EC50, lay at 1510 nM and the Emax was 171%.
The like results for `O=C(N[C@H](C(=O)O)C12CC3CC(CC(C3)C1)C2)c1ccc2ccccc2c1OCc1ccc(S(F)(F)(F)(F)F)cc1` [compound 47] were, in that order, 449 nM and 148%.
The corresponding values for `O=C(N[C@H](C(=O)O)[C@]12C[C@H]3C[C@](O)(C[C@](Cl)(C3)C1)C2)c1ccc2ccccc2c1OCc1ccc(OC(F)(F)F)cc1` [compound 80, (S)-2-((1S,3S,5R,7S)-3-chloro-5-hydroxyadamantan-1-yl)-2-(1-((4-(trifluoromethoxy)benzyl)oxy)-2-naphthamido)acetic acid] are 78 nM and 184%.
The like results for `O=C(N[C@H](C(=O)O)C12CC3CC(CC(C3)C1)C2)c1sc2ccccc2c1OCc1nc2ccccc2s1` [compound 95] were, in that order, 939 nM and 156%.
Consider `CS(=O)(=O)c1ccc(COc2c(C(=O)N[C@H](C(=O)O)C34CC5CC(CC(O)(C5)C3)C4)ccc3ccccc23)cc1` [compound 10], for which the EC50 was determined as 16900 nM and the Emax worked out at 29.2%.
The like results for `O=C(O)[C@@H](N1CN(Cc2ccc(OC(F)(F)F)cc2)c2c(ccc3ccccc23)C1=O)C12CC3CC(CC(O)(C3)C1)C2` [compound 119] were, in that order, 614 nM and 71%.
For the molecule `COc1cccc2c(OCc3ccc(C(F)(F)F)cc3)c(C(=O)N[C@H](C(=O)O)C34CC5CC(CC(C5)C3)C4)ccc12` [compound 12], the half-maximal effective concentration (EC50) amounted to 709 nM and the Emax amounted to 154%.
With `COc1c(F)c(COc2c(C(=O)N[C@H](C(=O)O)C34CC5CC(CC(C5)C3)C4)ccc3ccccc23)c(F)c(F)c1C(F)(F)F` [compound 86], the EC50 was 526 nM and the Emax turned out to be 24%.
The like results for `O=C(N[C@H](C(=O)O)C12CC3CC(CC(C3)C1)C2)c1ccc2ccccc2c1OCc1ccc(C(F)(F)F)cc1` [compound 96, (2S)-2-(1-adamantyl)-2-[[1-[[4-(trifluoromethyl)phenyl]methoxy]naphthalene-2-carbonyl]amino]acetic acid] were, in that order, 398 nM and 180%.
The like results for `Cc1ccc2c(c1C)N(Cc1ccc(C(F)(F)F)cc1)CN([C@H](C(=O)O)C13CC4CC(CC(C4)C1)C3)C2=O` [compound 136, (2S)-2-(1-adamantyl)-2-[7,8-dimethyl-4-oxo-1-[[4-(trifluoromethyl)phenyl]methyl]-2H-quinazolin-3-yl]acetic acid] were, in that order, 1580 nM and 17%.
The corresponding values for `O=C(N[C@H](C(=O)O)C12CC3CC(CC(C3)C1)C2)c1ccc2ccccc2c1OCc1ccc(C(F)(F)C(F)(F)F)cc1` [compound 40] are 113 nM and 149%.
Turning to `O=C(N[C@H](C(=O)O)C12CC3CC(CC(C3)C1)C2)c1ccc2sccc2c1OCc1nc(C(F)(F)F)cs1` [compound 115, (2S)-2-(1-adamantyl)-2-[[4-[[4-(trifluoromethyl)thiazol-2-yl]methoxy]benzothiophene-5-carbonyl]amino]acetic acid], a half-maximal response (EC50) required 2840 nM and the Emax was 106%.
For the molecule `CC(=O)COC12CC3CC(C1)CC([C@H](NC(=O)c1ccc4cc(F)ccc4c1OCc1ccc(C(F)(F)F)cc1)C(=O)O)(C3)C2` [compound 66], a half-maximal effect (EC50) was put at 1380 nM and the Emax turned out to be 84.2%.
The corresponding values for `CC(C)OC12CC3CC(C1)CC([C@H](NC(=O)c1ccc4ccccc4c1OCc1ccc(C(F)(F)F)cc1)C(=O)O)(C3)C2` [compound 11] are 401 nM and 157%.
The corresponding values for `C[C@H]1N(Cc2ccc(C(F)(F)F)cc2)c2c(ccc3ccccc23)C(=O)N1[C@H](C(=O)O)C12CC3CC(CC(C3)C1)C2` [compound 129, (2S)-2-(1-adamantyl)-2-[(2S)-2-methyl-4-oxo-1-[[4-(trifluoromethyl)phenyl]methyl]-2H-benzo[h]quinazolin-3-yl]acetic acid] are 90 nM and 34.9%.
The corresponding values for `O=C(N[C@H](C(=O)O)C12CC3CC(CC(C3)C1)C2)c1ccc2occc2c1OCc1ccc(C(F)(F)F)cc1` [compound 128, (2S)-2-(1-adamantyl)-2-[[4-[[4-(trifluoromethyl)phenyl]methoxy]benzofuran-5-carbonyl]amino]acetic acid] are 244 nM and 133%.
As for `O=C(N[C@H](C(=O)O)C12CC3CC(CC(C3)C1)C2)c1ccc2cc(F)ccc2c1OCc1ccc(Cl)c(Cl)c1` [compound 55], a half-maximal effect (EC50) was put at 196 nM and the Emax amounted to 150%.
The like results for `O=C(O)[C@@H](N1CN(Cc2ccc(C(F)(F)F)cc2)c2c(ccc3ccccc23)C1=O)C12CC3CC(CC(C3)C1)C2` [compound 125, (2S)-2-(1-adamantyl)-2-[4-oxo-1-[[4-(trifluoromethyl)phenyl]methyl]-2H-benzo[h]quinazolin-3-yl]acetic acid] were, in that order, 109 nM and 66%.
The corresponding values for `O=C(O)[C@@H](N1CN(Cc2ccc(SC(F)(F)F)cc2)c2c(ccc3ccccc23)C1=O)C12CC3CC(CC(O)(C3)C1)C2` [compound 121, (2S)-2-(3-hydroxy-1-adamantyl)-2-[4-oxo-1-[[4-(trifluoromethylsulfanyl)phenyl]methyl]-2H-benzo[h]quinazolin-3-yl]acetic acid] are 1630 nM and 56.5%.
The like results for `O=C(N[C@H](C(=O)O)C12CC3CC(CC(OCC(F)(F)F)(C3)C1)C2)c1ccc2cc(F)ccc2c1OCc1ccc(C(F)(F)F)cc1` [compound 26] were, in that order, 183 nM and 113%.
Consider `O=C(N[C@H](C(=O)O)C12CC3CC(CC(C3)C1)C2)c1sc2cc(Cl)ccc2c1OCc1ccc(C(F)(F)F)cc1` [compound 32], for which it took 396 nM to reach a half-maximal effect (EC50) and the Emax amounted to 105%.
The corresponding values for `O=C(N[C@H](C(=O)O)C12CC3CC(CC(C3)C1)C2)c1ccc2cc(O)ccc2c1OCc1ccc(C(F)(F)F)cc1` [compound 37] are 155 nM and 132%.
The like results for `Cc1ccc2ccc(C(=O)N[C@H](C(=O)O)C34CC5CC(CC(C5)C3)C4)c(OCc3ccc(OC(F)(F)F)cc3)c2c1` [compound 34] were, in that order, 489 nM and 264%.
With `O=C(O)[C@@H](N1CN(Cc2ccc(C(F)(F)F)cc2)c2ccccc2C1=O)C12CC3CC(CC(C3)C1)C2` [compound 135, (2S)-2-(1-adamantyl)-2-[4-oxo-1-[[4-(trifluoromethyl)phenyl]methyl]-2H-quinazolin-3-yl]acetic acid], the Emax is -5.4%.
Take `O=C(N[C@H](C(=O)O)C12CC3CC(CC(C3)C1)C2)c1ccc2ccccc2c1OC[C@H]1CC[C@@H](C(F)(F)F)CC1` [compound 70]: a half-maximal response (EC50) required 1860 nM and the Emax was found to be 97.4%.
